# Experiments:
# [1] = organism: Rattus norvegicus; type: toxicity, organism-based, Sprague-Dawley; conditions: in vivo, po, 500 mg/kg, 24 h, route oral GAVAGE, dose level High, time 1 day, vehicle .5 % CMC
# Description: DrugMatrix - Regimen: Single
# [2] = organism: Rattus norvegicus; assay: DrugMatrix - Regimen: Daily Repeat; type: toxicity, organism-based, Sprague-Dawley; parameters: regimen Daily Repeat, gender Male, age 6-8 weeks; conditions: in vivo, po, 500 mg/kg, 72 h, route oral GAVAGE, dose level High, time 3 day, vehicle .5 % CMC
smiles,measurement,setting,value
Clc1ccccc1 [CHLOROBENZENE],ABSOLUTE EOSINOPHIL,[1]; tissue Blood,0 CELLS/uL
same,ABSOLUTE LYMPHOCYTE,[1]; tissue Blood,9295.67 CELLS/uL
same,ABSOLUTE MONOCYTE,[1]; tissue Blood,616 CELLS/uL
same,ABSOLUTE SEGMENTED NEUTROPHIL,[1]; tissue Blood,1621.67 CELLS/uL
same,BASOPHIL,[1]; tissue Blood,0%
same,EOSINOPHIL,[1]; tissue Blood,0%
same,ERYTHROCYTE COUNT,[1]; tissue Blood,6.3 x10E6/uL
same,HEMATOCRIT,[1]; tissue Blood,39.37%
same,HEMOGLOBIN,[1]; tissue Blood,14.03 G/DL
same,LEUKOCYTE COUNT,[1]; tissue Blood,11.53 x10E3/uL
same,LYMPHOCYTE,[1]; tissue Blood,80.67%
same,MEAN CORPUSCULAR HEMOGLOBIN,[1]; tissue Blood,22.3 pg
same,MEAN CORPUSCULAR HEMOGLOBIN CONCENTRATION,[1]; tissue Blood,35.67 G/DL
same,MEAN CORPUSCULAR VOLUME,[1]; tissue Blood,62.53 fL
same,MONOCYTE,[1]; tissue Blood,5.33%
same,NEUTROPHIL,[1]; tissue Blood,14%
same,NUCLEATED RED BLOOD CELLS,[1]; tissue Blood,0 /100WBC
same,PLATELET COUNT,[1]; tissue Blood,1230.33 x10E3/uL
same,ALANINE AMINOTRANSFERASE,[1]; tissue Plasma,176 u/L
same,ALBUMIN,[1]; tissue Plasma,4.43 G/DL
same,ALKALINE PHOSPHATASE,[1]; tissue Plasma,416.33 u/L
same,ASPARTATE AMINOTRANSFERASE,[1]; tissue Plasma,280 u/L
same,BLOOD UREA NITROGEN,[1]; tissue Plasma,20 mg/dL
same,CARBON DIOXIDE,[1]; tissue Plasma,28.67 mmol/L
same,CHLORIDE,[1]; tissue Plasma,99.33 MEQ/L
same,CHOLESTEROL,[1]; tissue Plasma,69.67 mg/dL
same,CREATININE,[1]; tissue Plasma,0.23 mg/dL
same,GLUCOSE,[1]; tissue Plasma,154.33 mg/dL
same,LACTATE DEHYDROGENASE,[1]; tissue Plasma,419.67 u/L
same,LIPASE,[1]; tissue Plasma,10.67 u/L
same,PHOSPHORUS,[1]; tissue Plasma,12.9 mg/dL
same,POTASSIUM,[1]; tissue Plasma,5.56 MEQ/L
same,SODIUM,[1]; tissue Plasma,146.57 MEQ/L
same,TOTAL BILIRUBIN,[1]; tissue Plasma,0.23 mg/dL
same,TOTAL PROTEIN,[1]; tissue Plasma,6.53 G/DL
same,URIC ACID,[1]; tissue Plasma,1.4 mg/dL
same,ABSOLUTE BASOPHIL,[2]; tissue Blood,0 CELLS/uL
same,ABSOLUTE EOSINOPHIL,[2]; tissue Blood,274.33 CELLS/uL
same,ABSOLUTE LYMPHOCYTE,[2]; tissue Blood,9310 CELLS/uL
same,ABSOLUTE MONOCYTE,[2]; tissue Blood,211.33 CELLS/uL
same,ABSOLUTE SEGMENTED NEUTROPHIL,[2]; tissue Blood,771 CELLS/uL
same,BASOPHIL,[2]; tissue Blood,0%
same,EOSINOPHIL,[2]; tissue Blood,2.33%
same,ERYTHROCYTE COUNT,[2]; tissue Blood,6.63 x10E6/uL
same,HEMATOCRIT,[2]; tissue Blood,39.23%
same,HEMOGLOBIN,[2]; tissue Blood,14.07 G/DL
same,LEUKOCYTE COUNT,[2]; tissue Blood,10.57 x10E3/uL
same,LYMPHOCYTE,[2]; tissue Blood,88.33%
same,MEAN CORPUSCULAR HEMOGLOBIN,[2]; tissue Blood,21.2 pg
same,MEAN CORPUSCULAR HEMOGLOBIN CONCENTRATION,[2]; tissue Blood,35.9 G/DL
same,MEAN CORPUSCULAR VOLUME,[2]; tissue Blood,59.17 fL
same,MONOCYTE,[2]; tissue Blood,2%
same,NEUTROPHIL,[2]; tissue Blood,7.33%
same,NUCLEATED RED BLOOD CELLS,[2]; tissue Blood,0 /100WBC
same,PLATELET COUNT,[2]; tissue Blood,768.67 x10E3/uL
same,ALANINE AMINOTRANSFERASE,[2]; tissue Plasma,64 u/L
same,ALBUMIN,[2]; tissue Plasma,4.1 G/DL
same,ALKALINE PHOSPHATASE,[2]; tissue Plasma,361.67 u/L
same,ASPARTATE AMINOTRANSFERASE,[2]; tissue Plasma,100.33 u/L
same,BLOOD UREA NITROGEN,[2]; tissue Plasma,17.67 mg/dL
same,CARBON DIOXIDE,[2]; tissue Plasma,26.33 mmol/L
same,CHLORIDE,[2]; tissue Plasma,103.33 MEQ/L
same,CHOLESTEROL,[2]; tissue Plasma,86.67 mg/dL
same,CREATININE,[2]; tissue Plasma,0.21 mg/dL
same,GLUCOSE,[2]; tissue Plasma,184.33 mg/dL
same,LACTATE DEHYDROGENASE,[2]; tissue Plasma,325.33 u/L
same,LIPASE,[2]; tissue Plasma,9.67 u/L
same,PHOSPHORUS,[2]; tissue Plasma,14.17 mg/dL
same,POTASSIUM,[2]; tissue Plasma,5.77 MEQ/L
same,SODIUM,[2]; tissue Plasma,147.63 MEQ/L
same,TOTAL BILIRUBIN,[2]; tissue Plasma,0.17 mg/dL
same,TOTAL PROTEIN,[2]; tissue Plasma,5.83 G/DL
same,URIC ACID,[2]; tissue Plasma,2.13 mg/dL
